These results are taken from patent US7442501B2, “SQV nucleic acids and polypeptides” (Massachusetts Institute of Technology, priority 2002, dated 2008).

The structures appear in SMILES notation.

One assay deals with chondroitin synthase. In words: GlcAT (glucuronyl transferase) assay of chondroitin synthase activity in worm protein extracts. The class given is biochemical. The settings on record: extract genotype sqv-5/sqv-5 (sqv-5(n3611)). As for the experimental part:
sqv-5(n3611), sqv-5(n3611)/hT2, and wild-type (N2) animals were used to prepare worm protein extracts. These extracts were tested for chondroitin synthase activity using standard methods, for example, in DeAngelis et al., (J. Biol. Chem. 27:24124-24129, 2000).
A desulfated chondroitin acceptor was used for the GalNAcT (N-acetylgalactosamyl transferase) assay. Desulfated and β-glucuronidase-treated chondroitin acceptor was used for the GlcAT (glucuronyl transferase) assay.
The enzymatic activity of SQV-5 was assayed as follows. SQV-5(n3611), sqv-5(n3611)/hT2, and wild-type N2 hermaphrodites were picked as L4 larvae by visual examination of the vulva using a dissecting microscope. The worms staged were allowed to grow for an additional twenty-three to twenty-seven hours at 22° C., re-examined, then transferred to 1.7-ml plastic tubes containing sterile water. The staged worms were washed once with water and twice with 50 mM Tris, pH 7.5, then frozen in a 50 μl volume using liquid nitrogen, and stored at −70° C.
Worm extracts were assayed for GIcAT glucoronosyltransferase activity by combining 1.3×10^5 cpm UDP-^3H-glucuronic acid donor (NEN), 6 μg β-glucuronidase-treated chondroitin acceptor, and 2.7 μg worm extract in a 25 μl reaction volume containing 0.05% Triton X-100, 10 mM MnCl2, and 100 μM ATP, pH 6.5. GalNAcT activity was detected by combining 1.3 to 3×10^5 cpm UDP-^3H-GalNAc donor (NEN), 12 μg chondroitin acceptor, and 6.7 μg worm extract in a 25 μl reaction volume containing 0.05% Triton X-100 and 10 mM MnCl2, pH 6.5. […] Pelleted material was resuspended in water and counted by liquid scintillation.
The chondroitin acceptor used was prepared as follows. […] Uronic acid concentration of both preparations was determined by the Carbazole method (Bitter, et al., Anal. Biochem. 4:330-334, 1962).

The test system of another assay is MBP-SQV-1. In words: UDP-glucuronic acid decarboxylase assay (HPLC-MS). The class given is biochemical, C. elegans. The settings on record: in the presence of NAD+ cofactor. On the procedure:
This enzymatic reaction mixture was analyzed using an HPLC coupled to a mass spectrometer. Ion phase reverse polarity HPLC separated the nucleotide sugars and […] into three peaks of elution as detected by UV (FIG. 3A). These peaks were determined by mass spectrometry to be the substrate UDP-glucuronic acid, the product UDP-xylose, and the cofactor NAD^+. Negative polarity mass spectra identified the masses of the most abundant compounds in the reaction sample as 579 and 535 (FIG. 3B). These masses corresponded to the molecular masses of UDP-glucuronic acid (580) and UDP-xylose (536). The slight difference in molecular mass (579 versus 580 and 535 versus 536) was due to the negative ionization by the mass spectrometer, which removed one hydrogen atom from each compound. The presence of isotopic masses of 536 and 537 corresponded to subpopulations of UDP-xylose containing heavy isotopes such as ^13C.
Standard molecular biology techniques were used (Sambrook et al., Molecular Cloning: A Laboratory Manual. Plainview, N.Y., Cold Spring Harbor Laboratory Pess, 1989) to obtain a construct that encoded a SQV-1-maltose-binding protein (MBP) fusion protein. The sqv-1 coding sequence was cloned into the MBP encoding vector, pMAL-c2. The oligonucleotides 5′-[…]-3′ (SEQ ID NO:32) and 5′-[…]-3′ (SEQ ID NO:33) were used to PCR-amplify the sqv-1 ORF. […]

`O=C(O)[C@H]1O[C@H](OP(=O)(O)OP(=O)(O)OC[C@H]2O[C@@H](n3ccc(=O)[nH]c3=O)[C@H](O)[C@@H]2O)[C@H](O)[C@@H](O)[C@@H]1O` [UDP-glucuronic acid] displayed a CPM in the assay on chondroitin synthase of 109 CPM. In addition, the “conversion by MBP-SQV-1 fusion protein” value in the assay with MBP-SQV-1 was “generated UDP-xylose from UDP-glucuronic acid”.
